Where a name gives a salt, the structure may show the parent alone. Read-outs that look alike come from different tables or passages of the source. Blank lines part the entries; values can stand above or below the compound they belong to.
Key:
[1] = test system: patients with hypercholesterolaemia; details: cited from earlier work
[2] = Stability of pitavastatin calcium crystalline form at 40° C./75% RH and 25° C./60% RH (water by KF, related substances); assay type: physicochemical
Protocol: In general, the stability of pitavastatin calcium crystalline form having water content 5% wt/wt at 40° C./75% RH and 25° C./60% RH is shown in Table-1.

[3] = cited from earlier work; for purity / water content / total impurities: US '987 A1 Table 1; for total impurities: in % (unit assumed)
[4] = 1 month, 40° C. ± 2° C., RH 75% ± 5%
[5] = 2 month, 40° C. ± 2° C., RH 75% ± 5%
[6] = 3 month, 25° C. ± 2° C., RH 60% ± 5%
[7] = 3 month, 40° C. ± 2° C., RH 75% ± 5%
[8] = kept at 40° C. (air tight), after 90 days
[9] = kept at 40° C. (air tight), initial
[10] = kept in open air, after 90 days

SMILES: O=C(O)C[C@H](O)C[C@H](O)/C=C/c1c(C2CC2)nc2ccccc2c1-c1ccc(F)cc1 [pitavastatin]
- potency ([1]; on the basis of reported data, dose-dependent): equivalent to that of atorvastatin

- Related Substances: 5-oxo [2, 4]: 0.11%
- Related Substances: Desflouro [2, 4]: 0.05%
- Related Substances: Diastereomer [2, 4]: 0.11%
- Related Substances: Total Impurities [2, 4]: 0.28%
- Water by KF [2, 4]: 2.9 % w/w
- Related Substances: 5-oxo [2, 5]: 0.15%
- Related Substances: Desflouro [2, 5]: 0.05%
- Related Substances: Diastereomer [2, 5]: 0.11%
- Related Substances: Total Impurities [2, 5]: 0.31%
- Water by KF [2, 5]: 4.3 % w/w
- Related Substances: 5-oxo [2, 6]: 0.12%
- Related Substances: Desflouro [2, 6]: 0.05%
- Related Substances: Diastereomer [2, 6]: 0.12%
- Related Substances: Lactone [2, 6]: 0.07%
- Related Substances: Total Impurities [2, 6]: 0.36%
- Water by KF [2, 6]: 3.9 % w/w
- Related Substances: 5-oxo [2, 7]: 0.14%
- Related Substances: Desflouro [2, 7]: 0.05%
- Related Substances: Diastereomer [2, 7]: 0.11%
- Related Substances: Lactone [2, 7]: 0.09%
- Related Substances: Total Impurities [2, 7]: 0.39%
- Water by KF [2, 7]: 4.2 % w/w
- Related Substances: 5-oxo ([2]; Initial): 0.07%
- Related Substances: Desflouro ([2]; Initial): 0.05%
- Related Substances: Diastereomer ([2]; Initial): 0.17%
- Related Substances: Total Impurities ([2]; Initial): 0.32%
- Water by KF ([2]; Initial): 3.0 % w/w
SMILES: O=C(O)C[C@H](O)C[C@H](O)/C=C/c1c(C2CC2)nc2ccccc2c1-c1ccc(F)cc1 [pitavastatin calcium, (3R,5S)-7-[2-cyclopropyl-4-(4-flourophenyl)-quinolin-3-yl]-3,5-dihydroxy-6-(E)-heptenoic acid calcium salt]
- purity [3, 8]: 99.64
- water content [3, 8]: 7.81%
- total impurities [3, 8]: 0.211
- purity [3, 9]: 99.38%
- water content [3, 9]: about 7.89
- total impurities [3, 9]: 0.179
- purity [3, 10]: 96.49
- water content [3, 10]: 1.77%
- total impurities [3, 10]: 2.099
- purity ([3]; kept in open air, initial): 99.38%
- water content ([3]; kept in open air, initial): about 7.89
- total impurities ([3]; kept in open air, initial): 0.179
- stability during the storage ([3]; pitavastatin calcium which has become amorphous, reported in US '987 A1): very poor stability
- safety and tolerability ([1]; treatment of patients with hypercholesterolaemia): safe and well tolerated

From patent US9034901B2, “Pitavastatin calcium and process for its preparation” (Cadila Healthcare Limited, priority 2010, dated 2015)
